According to article PMC11638965, “Leveraging Dual-Ligase Recruitment to Enhance Protein Degradation via a Heterotrivalent Proteolysis Targeting Chimera” (Journal of the American Chemical Society, 2024):

Columns and labels:
BRD2 [1] = molecular target: T1, BRD2 (Homo sapiens, UniProt P25440); assay: Live cell kinetic HiBiT degradation assay, HiBiT-BRD2 HEK293 cells; assay type: cell-based; conditions: for λmax BRD2 (degradation rate): HiBiT-BRD2 knock-in HEK293 cells; for DC50: HiBiT-BRD2 CRISPR knock-in HEK293 cells, live cell kinetic degradation, 24 h, read-out: Dmax 50 BRD2
T1 construct: HiBiT, is appended to the N-terminus of endogenous BRD2, BRD3, and BRD4; endogenous in cells
Method: (§1) HEK293 HiBiT-BRD2 (LgBiT stable), HEK293 HiBiT-BRD3 (LgBiT stable), and HEK293 HiBiT-BRD4 (LgBiT stable) were created using CRISPR/Cas9 to insert at HiBiT tag at the N-terminal genomic loci of BRD2, BRD3, or BRD4 in a cell line stably expressing LgBiT protein as described previously.[23]
(§2) For kinetic degradation experiments, HEK293 HiBiT-BRD2, 3, or 4 (LgBiT stable) cells and HEK293 HiBiT-BRD4 (LgBiT) CRBN KO and VHL KO cells were plated at 20,000 cells/well in DMEM +10% FBS in white 96-well tissue culture plates and allowed to adhere overnight. The next day, media was removed and 90 μL of prewarmed CO2-independent medium (Gibco) containing Endurazine (Promega) at a 1:100 dilution from stock was added. Plates were incubated at 37 °C for 3 h to allow luminescence to equilibrate. A threefold dilution series of each PROTAC at 10x the desired final concentration was prepared (with the amount of DMSO in each treatment condition kept constant). After luminescence equilibration, a preread luminescence measurement was taken (prior to compound addition) to allow for baseline normalization to account for possible plating differences. Cells were then treated with 10 μL of the prepared PROTAC dilution series (in triplicate or quadruplicate). Treated plates were placed in a GloMax Discover luminometer (Promega) prewarmed to 37 °C and luminescence measurements were obtained every 7 min for 24 h. Kinetic degradation plots were obtained by first normalizing time course luminescence readings in each well to the preread measurement, then to the average value of the DMSO only control at each time point. Data was analyzed using GraphPad Prism (version 8) and excel. Dmax values were identified as the lowest luminescence reading in each well. Rate constant values were calculated using a one phase exponential decay Y = (Y0-Plateau) e(K*^X) + Plateau using Prism (Y0 constrained to 1). Dmax 50 values were calculated by plotting Dmax as a function of concentration, then fitting plots using the following equation: [drawing 1] to determine IC50.

BRD3 [2] = molecular target: T2, BRD3 (Homo sapiens, UniProt Q15059); assay: Live cell kinetic HiBiT degradation assay, HiBiT-BRD3 HEK293 cells; assay type: cell-based; conditions: for DC50: live cell kinetic degradation, read-out: Dmax 50 BRD3
T2 construct: HiBiT, is appended to the N-terminus of endogenous BRD2, BRD3, and BRD4; endogenous in cells
Method: as §1, §2

BRD2 [3] = molecular target: T1, BRD2; assay: Western blot dose-response degradation in HEK293 cells; assay type: cell-based; conditions: 6 h, mean ± S.E.M. of three experiments, values marked b mean ± S.D. of two
Method: (§3) HEK293 cells were obtained from ATCC. HEK293 was cultured in DMEM supplemented with 10% (v/v) fetal bovine serum (FBS), 1% […] and 1% (v/v) penicillin/streptomycin (pen/strep) at 37 °C, 5% CO2, and 95% humidity.
(§4) HEK293 cells were plated at a density of 5 × 10^5 cells per well of a six well plate a day prior to initiation of the experiment. Compounds were dissolved to a 10 mM concentrated stock solution in DMSO from which the compounds were further diluted to a working concentration range of 1 μM to 100 pM in DMEM and was subsequently added to cells at the initiation of the experiment. An additional vehicle control was added to cells alongside compound treatments. Cells were left to incubate with compound for 6 h at 37 °C, 5% CO2, and 95% humidity. Cells were then subsequently washed twice with PBS before being harvested in RIPA buffer supplemented with protease inhibitor cocktail and Benzonase Nuclease before being store at −20 °C.
(§5) Protein concentration was determined using the BCA assay. Samples were then prepared in LDS buffer containing 5% 1 M DTT and subsequently loaded onto NuPAGE 4–12% Bis-Tris Midi gels, followed by the transfer of the proteins onto nitrocellulose membranes. The membranes were blocked for 1 h prior to incubation with the primary antibodies using 5% Milk TBST. Membranes were incubated at 4 °C in either BRD4(Ab128874), BRD3(Ab50818), BRD2(Ab139690), VHL(CST#68547) and CRBN(CST#71810) primary antibody overnight. Following overnight incubation, the membranes were incubated with complementary IRDye 800CW secondary antibody and a hFAB Rhodamine Anti-Tubulin Primary Antibody (loading control) for 1 h and then imaged with a Bio-Rad imager. All Western blots were analyzed for band intensities using Image Lab (Bio-Rad). The data extracted from these blots were then plotted and analyzed using Prism (v. 10.2.2, GraphPad). Linear regression curve fitting was used to calculate pDC50 values. The standard deviation of the pDC50 was calculated for all compounds that had two independent repeats and the standard error of the mean calculated for all compounds that had three independent repeats. All Western blotting figures were developed in Adobe illustrator.

BRD3 [4] = molecular target: T2, BRD3; assay: as above; assay type: cell-based; conditions: 6 h, mean ± S.E.M. of three experiments, values marked b mean ± S.D. of two
Method: as §3, §4, §5

BRD4^Long = molecular target: T3, BRD4^Long (Homo sapiens, UniProt O60885); assay: as above; assay type: cell-based; conditions: HEK293 cells, 6 h, Western blot; mean ± S.E.M. of three experiments, values marked b mean ± S.D. of two
T3 construct: Western blot data for BET, CRBN and VHL protein levels; endogenous in cells; host or cells: HEK293 (ATCC)
Method: as §3, §4, §5

BRD4^Short = molecular target: T4, BRD4^Short (Homo sapiens, UniProt O60885); assay: as above; assay type: cell-based; conditions: 6 h, mean ± S.E.M. of three experiments, values marked b mean ± S.D. of two
T4 construct: Western blot data for BET, CRBN and VHL protein levels; endogenous in cells; host or cells: HEK293 (ATCC)
Method: as §3, §4, §5

K562 cells = assay: Cell viability assay (CellTiter-Glo); assay type: cell-based, human; conditions: Homo sapiens; WT K562, 5.12 pM to 10 uM, n = 3 (Table S4)
KBM7 cells = assay: Cell viability assay (CellTiter-Glo); assay type: cell-based, human; conditions: Homo sapiens, KBM-7; WT KBM7, 5.12 pM to 10 uM, n = 3 (Table S4)
CRBN = CRBN (Homo sapiens, UniProt Q96SW2); assay: Western blot dose-response degradation in HEK293 cells; assay type: cell-based; parameters: Western blot data for BET, CRBN and VHL protein levels; endogenous in cells; host or cells: HEK293 (ATCC); conditions: for DC50: HEK293 cells, 6 h, Western blot, mean ± S.E.M. of three experiments, values marked b mean ± S.D. of two
Method: as §3, §4, §5

[5] = HiBiT-BRD3 CRISPR knock-in HEK293 cells, 24 h
[6] = HiBiT-BRD3 knock-in HEK293 cells

T2 sequence (Q15059 whole entry): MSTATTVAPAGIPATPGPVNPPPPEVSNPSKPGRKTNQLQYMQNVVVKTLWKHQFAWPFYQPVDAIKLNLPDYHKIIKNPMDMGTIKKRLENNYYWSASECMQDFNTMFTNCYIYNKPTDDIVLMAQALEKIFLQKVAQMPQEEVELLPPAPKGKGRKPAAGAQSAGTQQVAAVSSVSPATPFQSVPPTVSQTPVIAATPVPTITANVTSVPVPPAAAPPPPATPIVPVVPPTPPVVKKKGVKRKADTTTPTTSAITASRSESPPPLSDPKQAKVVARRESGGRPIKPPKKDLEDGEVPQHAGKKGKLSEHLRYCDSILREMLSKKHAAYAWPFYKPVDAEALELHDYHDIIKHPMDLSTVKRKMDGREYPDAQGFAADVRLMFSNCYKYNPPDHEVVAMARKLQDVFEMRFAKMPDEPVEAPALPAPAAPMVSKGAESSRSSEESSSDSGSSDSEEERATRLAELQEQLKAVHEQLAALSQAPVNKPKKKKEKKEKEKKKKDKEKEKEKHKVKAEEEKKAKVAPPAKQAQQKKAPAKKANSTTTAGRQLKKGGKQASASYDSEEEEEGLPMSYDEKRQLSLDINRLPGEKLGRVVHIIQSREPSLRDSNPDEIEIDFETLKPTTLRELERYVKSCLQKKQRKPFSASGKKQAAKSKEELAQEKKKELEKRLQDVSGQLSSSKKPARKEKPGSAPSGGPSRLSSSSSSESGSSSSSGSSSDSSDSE
Sequence of CRBN (Q96SW2 whole entry): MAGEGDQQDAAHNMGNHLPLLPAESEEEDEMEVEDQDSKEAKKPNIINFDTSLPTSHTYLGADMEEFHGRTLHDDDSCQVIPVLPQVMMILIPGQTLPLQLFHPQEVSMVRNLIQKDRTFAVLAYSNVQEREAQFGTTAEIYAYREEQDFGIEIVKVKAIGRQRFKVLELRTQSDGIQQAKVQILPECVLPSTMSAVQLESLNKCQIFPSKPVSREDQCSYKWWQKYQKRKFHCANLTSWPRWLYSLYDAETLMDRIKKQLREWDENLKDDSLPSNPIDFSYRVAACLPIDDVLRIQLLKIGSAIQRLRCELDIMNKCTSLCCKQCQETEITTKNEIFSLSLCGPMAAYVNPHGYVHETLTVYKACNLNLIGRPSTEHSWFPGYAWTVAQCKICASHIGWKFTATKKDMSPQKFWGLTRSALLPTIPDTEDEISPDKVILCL
T1 sequence (P25440 whole entry): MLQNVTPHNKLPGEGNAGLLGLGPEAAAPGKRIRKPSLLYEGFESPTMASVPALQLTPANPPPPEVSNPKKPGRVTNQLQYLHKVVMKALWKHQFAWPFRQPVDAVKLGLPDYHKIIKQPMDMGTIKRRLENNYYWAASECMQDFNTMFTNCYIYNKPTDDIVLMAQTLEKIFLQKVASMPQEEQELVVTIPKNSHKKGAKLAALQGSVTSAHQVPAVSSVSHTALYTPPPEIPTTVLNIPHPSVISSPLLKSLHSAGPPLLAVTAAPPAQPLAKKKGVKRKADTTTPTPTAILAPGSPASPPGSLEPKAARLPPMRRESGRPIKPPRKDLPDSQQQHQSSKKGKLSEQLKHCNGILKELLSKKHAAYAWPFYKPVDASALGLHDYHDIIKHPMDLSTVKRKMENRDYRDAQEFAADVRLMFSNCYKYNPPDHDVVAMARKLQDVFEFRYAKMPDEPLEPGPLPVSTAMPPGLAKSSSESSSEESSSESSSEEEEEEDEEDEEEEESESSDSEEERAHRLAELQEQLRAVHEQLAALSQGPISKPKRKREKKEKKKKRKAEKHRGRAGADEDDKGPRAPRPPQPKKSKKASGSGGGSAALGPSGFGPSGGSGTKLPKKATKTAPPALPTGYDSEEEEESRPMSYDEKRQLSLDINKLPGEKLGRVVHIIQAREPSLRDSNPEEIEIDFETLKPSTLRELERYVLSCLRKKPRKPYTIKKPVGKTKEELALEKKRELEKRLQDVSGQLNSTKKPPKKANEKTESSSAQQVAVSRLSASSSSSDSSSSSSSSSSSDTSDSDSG

| SMILES | λmax BRD2 (degradation rate) (BRD2 [1]) | DC50 (BRD3 [2]; [5]) | λmax BRD3 (degradation rate) (BRD3 [2]; [6]) | DC50 (BRD2 [3]) | DC50 (BRD3 [4]) | DC50 (BRD4^Long) | DC50 (BRD4^Short) | EC50 (K562 cells) | EC50 (KBM7 cells) | DC50 (CRBN) | DC50 (BRD2 [1]) | DC50 (BRD3 [2]; [6]) | fold increase in CRBN degradation vs nonmethylated matched pair (CRBN; 27 vs 26, 24 vs 23, DC50, HEK293 Western blot) |
| --- | --- | --- | --- | --- | --- | --- | --- | --- | --- | --- | --- | --- | --- |
| Cc1ncsc1-c1ccc(CNC(=O)[C@@H]2C[C@@H](O)CN2C(=O)[C@@H](NC(=O)COCC(C)(COCCOCCOCCNc2cccc3c2C(=O)N(C2CCC(=O)NC2=O)C3=O)COCCOCCOCCOC(=O)C[C@@H]2N=C(c3ccc(Cl)cc3)c3c(sc(C)c3C)-n3c(C)nnc32)C(C)(C)C)cc1 (mixture of isomers) [AB3062 (23), (17S)-11-((2-(2-(2-((2-(2,6-dioxopiperidin-3-yl)-1,3-dioxoisoindolin-4-yl)amino)ethoxy)ethoxy)ethoxy)methyl)-17-((2S,4R)-4-hydroxy-2-((4-(4-methylthiazol-5-yl)benzyl)carbamoyl)pyrrolidine-1-carbonyl)-11,18,18-trimethyl-15-oxo-3,6,9,13-tetraoxa-16-azanonadecyl 2-((S)-4-(4-chlorophenyl)-2,3,9-trimethyl-6H-thieno[3,2-f][1,2,4]triazolo[4,3-a][1,4]diazepin-6-yl)acetate] | 1.12 h⁻¹ | 5.7 nM | 2.06 h⁻¹ | 58 ± 16 nM | 11 ± 4.6 nM | 2.5 ± 0.5 nM | 11 ± 3.7 nM | 212 nM | 104 nM | 200 ± 110 nM | – | – | – |
| Cc1ncsc1-c1ccc(CNC(=O)[C@@H]2C[C@@H](O)CN2C(=O)[C@@H](NC(=O)COCC(C)(COCCOCCOCCNc2cc3c(cc2F)C(=O)N(C2CCC(=O)NC2=O)C3=O)COCCOCCOC(=O)C[C@@H]2N=C(c3ccc(Cl)cc3)c3c(sc(C)c3C)-n3c(C)nnc32)C(C)(C)C)cc1 (mixture of isomers) [AB3065 (28), (14S)-8-((2-(2-(2-((2-(2,6-dioxopiperidin-3-yl)-6-fluoro-1,3-dioxoisoindolin-5-yl)amino)ethoxy)ethoxy)ethoxy)methyl)-14-((2S,4R)-4-hydroxy-2-((4-(4-methylthiazol-5-yl)benzyl)carbamoyl)pyrrolidine-1-carbonyl)-8,15,15-trimethyl-12-oxo-3,6,10-trioxa-13-azahexadecyl 2-((S)-4-(4-chlorophenyl)-2,3,9-trimethyl-6H-thieno[3,2-f][1,2,4]triazolo[4,3-a][1,4]diazepin-6-yl)acetate] | 1.46 h⁻¹ | 1.2 nM | 2.14 h⁻¹ | 21 ± 5.4 nM | 14 ± 7.5 nM | 10 ± 4.4 nM | 12 ± 5.8 nM | 110 nM | 39.4 nM | 310 ± 200 nM | 23 nM | – | – |
| Cc1ncsc1-c1ccc(CNC(=O)[C@@H]2C[C@@H](O)CN2C(=O)[C@@H](NC(=O)COCC(C)(COCCOCCOCCNc2cccc3c2C(=O)N(C2CCC(=O)NC2=O)C3=O)COCCOCCOC(=O)C[C@@H]2N=C(c3ccc(Cl)cc3)c3c(sc(C)c3C)-n3c(C)nnc32)C(C)(C)C)cc1 (mixture of isomers) [AB3064 (25), (14S)-8-((2-(2-(2-((2-(2,6-dioxopiperidin-3-yl)-1,3-dioxoisoindolin-4-yl)amino)ethoxy)ethoxy)ethoxy)methyl)-14-((2S,4R)-4-hydroxy-2-((4-(4-methylthiazol-5-yl)benzyl)carbamoyl)pyrrolidine-1-carbonyl)-8,15,15-trimethyl-12-oxo-3,6,10-trioxa-13-azahexadecyl 2-((S)-4-(4-chlorophenyl)-2,3,9-trimethyl-6H-thieno[3,2-f][1,2,4]triazolo[4,3-a][1,4]diazepin-6-yl)acetate] | 1.34 h⁻¹ | 8.1 nM | 1.69 h⁻¹ | 75 ± 20 nM | 28 ± 0.8 nM | 12 ± 2.4 nM | 18 ± 3.3 nM | 369 nM | 168 nM | 480 ± 370 nM | 74 nM | – | – |
| Cc1ncsc1-c1ccc([C@H](C)NC(=O)[C@@H]2C[C@@H](O)CN2C(=O)[C@@H](NC(=O)COCC(C)(COCCOCCOCCNc2cc3c(cc2F)C(=O)N(C2CCC(=O)NC2=O)C3=O)COCCOCCOCCOC(=O)C[C@@H]2N=C(c3ccc(Cl)cc3)c3c(sc(C)c3C)-n3c(C)nnc32)C(C)(C)C)cc1 (mixture of isomers) [AB3067 (27), (17S)-11-((2-(2-(2-((2-(2,6-dioxopiperidin-3-yl)-6-fluoro-1,3-dioxoisoindolin-5-yl)amino)ethoxy)ethoxy)ethoxy)methyl)-17-((2S,4R)-4-hydroxy-2-(((S)-1-(4-(4-methylthiazol-5-yl)phenyl)ethyl)carbamoyl)pyrrolidine-1-carbonyl)-11,18,18-trimethyl-15-oxo-3,6,9,13-tetraoxa-16-azanonadecyl 2-((S)-4-(4-chlorophenyl)-2,3,9-trimethyl-6H-thieno[3,2-f][1,2,4]triazolo[4,3-a][1,4]diazepin-6-yl)acetate] | 2.37 h⁻¹ | < 0.43 nM | 3.31 h⁻¹ | 15 ± 2.1 nM | 1.6 ± 0.3 nM | 2.3 ± 0.4 nM | 2.1 ± 0.3 nM | 62.1 nM | 6.9 nM | 75 ± 14 nM | 2 nM | 0.085 nM | ~2.6 fold |
